The test system of one experiment is phospho-STAT1 (Tyr701). Description: Phospho-STAT1 (Tyr701) HTRF assay in B16-F10 cells. The conditions noted are these: mouse IFN-gamma 100 ng/ml, 1 hour, read-out: pSTAT1 HTRF B16 EC50. The class given is cell-based. As for the experimental part: B16-F10 cells (ATCC, Manassas, VA, #CRL-6475) were cultured in DMEM growth medium (ThermoFisher Scientific, Waltham, MA, #11995-040) supplemented with 10% heat inactivated FBS (ThermoFisher Scientific, #16140-071) and 1% pen/strep (ThermoFisher Scientific, #15140-122). The cells were seeded into a white opaque 384-well tissue culture treated microplate (PerkinElmer, Waltham, MA, #6007688) at a density of 10,000 cells/well in 20 uL total volume and incubated overnight at 37 C and 5% CO2. 30 nL of compounds dissolved in DMSO were then transferred from a source plate into target wells with the Echo650 acoustic liquid handler (Beckman Coulter, Indianapolis, IN). Negative control wells received 30 nL of DMSO only (0.15% final concentration). Plates were returned to the incubator for 1 hour and then cells treated with either 5 uL of growth medium or 5 uL of growth medium containing 500 ng/ml of recombinant mouse IFN-gamma protein (R&D Systems, Minneapolis, MN, #485-MI/CF, 100 ng/ml final concentration) using the Assist automated pipetting platform (INTEGRA Biosciences, Hudson, NH). Plates were incubated at 37 C for 1 hour and assayed for phosphorylated STAT1 protein levels with the phospho-STAT1 (Tyr701) HTRF kit (Cisbio, Bedford, MA, #63ADK026PEH) according to manufacturer's instructions. HTRF signal intensity was collected with the En Vision 2105 plate reader (PerkinElmer) 24 hours later and analyzed with the Dotmatics software platform to calculate compound IC50 values.

Experiment [1] concerns the target T1, PTPN2 (Homo sapiens, UniProt P17706).
T1 sequence (P17706 1-415): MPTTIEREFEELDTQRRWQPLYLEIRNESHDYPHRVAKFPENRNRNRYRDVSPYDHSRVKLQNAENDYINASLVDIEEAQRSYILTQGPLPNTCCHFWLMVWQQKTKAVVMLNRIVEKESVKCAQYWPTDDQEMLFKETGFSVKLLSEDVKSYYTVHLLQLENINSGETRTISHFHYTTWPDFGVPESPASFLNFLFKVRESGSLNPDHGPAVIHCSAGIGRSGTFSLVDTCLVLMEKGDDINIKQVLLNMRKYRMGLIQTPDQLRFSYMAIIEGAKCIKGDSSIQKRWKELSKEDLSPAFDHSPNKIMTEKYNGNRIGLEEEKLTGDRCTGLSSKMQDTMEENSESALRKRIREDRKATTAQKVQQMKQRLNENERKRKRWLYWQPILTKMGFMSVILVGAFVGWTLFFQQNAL
The experiment can be described thus: PTPN2 biochemical assay (PhosphoSens, substrate AQT0264). The conditions noted are these: PhosphoSens substrate AQT0264 20 μM, room temperature; read-out: PTPN2 BCHEM IC50. As to the method: A PhosphoSens® kinase assay was performed as described by the vendor (AssayQuant Technologies, Marlborough, MA). Briefly, 1000× solutions of compounds were prepared in DMSO via serial dilution of the 10 mM DMSO stocks using 3-fold intervals in a 384-well reagent plate. 50 nL of the compound dilution series was then added to the corresponding wells of a 384-well assay plate. 40 mL of 1.25× substrate (AQT0264) in 1× assay buffer (50 mM HEPES pH 7.5, 500 μM EGTA, […] MgCl2, 0.01% Brij-35, 1% Glycerol, 1 mM DTT, and 0.2 mg/mL BSA) was transferred to each well of the assay plate to achieve a final substrate concentration of 20 μM. Finally, […] of 5×PTPN2 enzyme stock was added to each well of the assay plate for a final enzyme concentration of […]. Reaction progress curves were collected by sampling fluorescence intensity at the excitation wavelength 360 nm (λex360) and emission wavelength 480 nm (λem480) every 71 seconds for one hour using a Synergy H4 plate reader (BioTek Instruments/Agilent Technologies, Winooski, VT) at room temperature.
(§1) For IC50 data, High DDT concentration and/or DiFMUP substrate assays were used; a skilled artisan may use either assay.

The target in experiment [2] is T1, PTPN2. Description: Phosphatase activity assay using DiFMUP as substrate. The class given is biochemical. Also noted: purchased MilliporeSigma SRP5075. The conditions noted are these: 10 mM DTT, PTPN2 0.15 nM, room temperature, read-out: PTPN2 BCHEM DIFMUP IC50. As to the method: The PTPN2 biochemical assay was performed as follows, a 5× stock solution of human PTPN2 (SRP5075, MilliporeSigma, Burlington, MA) and a 1.25× stock solution of DiFMUP (D6567, ThermoFisher Scientific, Waltham, MA), were prepared in 1× reaction buffer consisting of 50 mM HEPES, pH 7.4, 1 mM EDTA, 150 mM NaCl, 0.2 mg/mL BSA, 100 U/mL catalase and 10 mM DTT. […] of the DiFMUP substrate solution, for a final concentration of […] DiFMUP substrate, was added to a Corning 3574 384-well, white, non-binding surface microtiter plate containing […] of serially diluted test compounds prepared in DMSO. The reactions were started with the addition of […] of the enzyme solution, for a final PTPN2 concentration of 0.15 nM, and monitored every 105 seconds for 60 minutes at λEX 360/λEM 460 in a BioTek Synergy HTX plate reader (Agilent Technologies, Santa Clara, CA) at room temperature. The initial linear portions of the progress curves were fit according to a linear equation to yield the slopes and converted to % inhibition based on a value of 100% activity for the no inhibitor treated control. IC50 values of each compound were obtained by fitting the % inhibition-compound concentration curves using Dotmatics software (Dotmatics, Bishops Stortford, Hertfordshire, England)
as §1

The test system of a further experiment is B16-F10 cells. The experiment can be described thus: Cell proliferation assay (CellTiter-Glo) in B16-F10 cells with IFN-gamma. The experiment is classed as cell-based. The conditions noted are these: mouse IFN-gamma 10 ng/mL, read-out: PTPN2 Prolif 5d B16F10 EC50. As to the method: B16-F10 cells (ATCC, Manassas, VA, #CRL-6475) were cultured in DMEM growth medium (ThermoFisher Scientific, Waltham, MA, #11995-040) supplemented with 10% heat inactivated FBS (ThermoFisher Scientific, #16140-071) and 1% pen/strep (ThermoFisher Scientific, #15140-122). The cells were seeded into two white opaque 384-well tissue culture treated microplates (PerkinElmer, Waltham, MA, #6007688) at a density of 100 cells/well in 20 uL total volume and incubated overnight at 37 C and 5% CO2. 30 nL of compounds dissolved in DMSO were then transferred from a source plate into target wells with the Echo650 acoustic liquid handler (Beckman Coulter, Indianapolis, IN). Negative control wells received 30 nL of DMSO only (0.15% final concentration). Plates were returned to the incubator for 1 hour and then cells treated with either 5 uL of growth medium or 5 uL of growth medium containing 50 ng/ml of recombinant mouse IFN-gamma protein (R&D Systems, Minneapolis, MN, #485-MI/CF, 10 ng/mL final concentration) using the Assist automated pipetting platform (INTEGRA Biosciences, Hudson, NH). Plates were incubated at 37 C for 4 days and cell proliferation assayed with the CellTiter-Glo reagent (Promega, Madison, WI, #G7573, 25 uL per well). […] Off-target compound mediated cytotoxicity was identified by checking for growth inhibition in the absence of IFNg.
For orientation: ATP-based viability assays read luminescence as a measure of living cells.

The text below walks through data of patent US20240228476A1, “INHIBITORS OF PROTEIN TYROSINE PHOSPHATASE, COMPOSITIONS, AND METHODS OF USE” (BRISTOL-MYERS SQUIBB COMPANY, priority 2022, published 2024).

Usually EC50 stands for the concentration needed to bring the measured effect to its halfway point. The IC50 is the point on the concentration scale where inhibition reaches its midpoint.

Read-outs that look alike come from different tables or passages of the source.

With `CN(C)c1ccc(NCc2cc(O)c(N3CC(=O)NS3(=O)=O)c(F)c2)cn1` [EXAMPLE 1, 5-[4-[[[6-(dimethylamino)-3-pyridyl]amino]methyl]-2-fluoro-6-hydroxy-phenyl]-1,1-dioxo-1,2,5-thiadiazolidin-3-one], the EC50 in the experiment with phospho-STAT1 (Tyr701) worked out at 420 nM; with B16-F10 cells (120 h), 900 nM. Besides, the IC50 at PTPN2 [1] worked out at 20 nM; at PTPN2 [2] it was 130 nM.
In the same order, the values of `Cc1cc(NCc2cc(O)c(N3CC(=O)NS3(=O)=O)c(F)c2)nc(C)n1` [EXAMPLE 17, 5-[4-[[(2,6-dimethylpyrimidin-4-yl)amino]methyl]-2-fluoro-6-hydroxy-phenyl]-1,1-dioxo-1,2,5-thiadiazolidin-3-one] are 1880 nM, 2210 nM, 20 nM and 50 nM.
In the same order, the values of `CCN(Cc1cc(O)c(N2CC(=O)NS2(=O)=O)c(F)c1)c1nc(C)cc(-c2ccccc2C#N)n1` [EXAMPLE 14, 2-[2-[ethyl-[[3-fluoro-5-hydroxy-4-(1,1,4-trioxo-1,2,5-thiadiazolidin-2-yl)phenyl]methyl]amino]-6-methyl-pyrimidin-4-yl]benzonitrile] are greater than 15000 nM, greater than 15000 nM, 210 nM and 490 nM.
With `Cc1cnc(C)c(NCc2cc(O)c(N3CC(=O)NS3(=O)=O)c(F)c2)n1` [EXAMPLE 18, 5-[4-[[(3,6-dimethylpyrazin-2-yl)amino]methyl]-2-fluoro-6-hydroxy-phenyl]-1,1-dioxo-1,2,5-thiadiazolidin-3-one], the 50% effective concentration (EC50) in the experiment on phospho-STAT1 (Tyr701) and in the experiment with B16-F10 cells (120 h) was greater than 15000 nM throughout. For the same molecule, the half-inhibitory concentration (IC50) was determined as 50 nM at PTPN2 [1] and 110 nM at PTPN2 [2].
Regarding `O=C1CN(c2c(O)cc(CNc3cncc(C(F)(F)F)c3)cc2F)S(=O)(=O)N1` [EXAMPLE 7, 5-[2-fluoro-6-hydroxy-4-[[[5-(trifluoromethyl)-3-pyridyl]amino]methyl]phenyl]-1,1-dioxo-1,2,5-thiadiazolidin-3-one], the EC50 with phospho-STAT1 (Tyr701) is 2300 nM; in the experiment with B16-F10 cells (120 h) it was 3130 nM. Besides, the IC50 at PTPN2 [1] turned out to be 40 nM; at PTPN2 [2] it was 100 nM.
In the case of `Cc1ncc(NCc2cc(O)c(N3CC(=O)NS3(=O)=O)c(F)c2)nc1C` [EXAMPLE 19, 5-[4-[[(5,6-dimethylpyrazin-2-yl)amino]methyl]-2-fluoro-6-hydroxy-phenyl]-1,1-dioxo-1,2,5-thiadiazolidin-3-one], the values for the concentration for a half-maximal effect (EC50) in the experiment on phospho-STAT1 (Tyr701) and in the experiment on B16-F10 cells (120 h) were 370 nM and 1240 nM, respectively. Further, the IC50 is 10 nM on PTPN2 [1] and 50 nM on PTPN2 [2].
“6-[[3-fluoro-5-hydroxy-4-(1,1,4-trioxo-1,2,5-thiadiazolidin-2-yl)phenyl]methylamino]-4-methyl-pyridine-3-carbonitrile [EXAMPLE 5]”: the EC50 in the experiment with phospho-STAT1 (Tyr701) was found to be 4470 nM; with B16-F10 cells, 4760 nM. For the same molecule, the IC50 at PTPN2 [1] and at PTPN2 [2] was 20 nM throughout.
